# Like-named read-outs stand apart in the source and are kept apart here.
# Legend:
# Format in all cases: cell-based
# LoVo = assay: SRB colorimetric cell growth inhibition assay, LoVo; conditions: Homo sapiens, LoVo; for GI50: GI=growth inhibition, read-out: GI50 LOVO; for CC50: read-out: LC50 LOVO; for IC (TGI): read-out: TGI LOVO
# How it was run: (§1)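 Cancer cells grown in vitro were continuously treated with compound. Cell mass was then determined by SRB staining and expressed as growth inhibition.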
# A-549 = assay: SRB colorimetric cell growth inhibition assay, A-549; conditions: Homo sapiens, A549, A-549; for GI50: GI=growth inhibition, read-out: GI50 A-549; for CC50: read-out: LC50 A-549; for IC (TGI): read-out: TGI A-549
# How it was run: as §1
# SK-MEL-28 = assay: SRB colorimetric cell growth inhibition assay, SK-MEL-28; conditions: Homo sapiens, SK-MEL-28, MEL-28; for GI50: GI=growth inhibition, read-out: GI50 MEL-28; for CC50: LC=cell killing (cytotoxic effect), read-out: LC50 MEL-28; for IC (TGI): TGI=total growth inhibition (cytostatic effect), read-out: TGI MEL-28
# How it was run: as §1
# PANC-1 = assay: SRB colorimetric cell growth inhibition assay, PANC-1; conditions: Homo sapiens, PANC-1, PANC-1; for GI50: GI=growth inhibition, read-out: GI50 PANC-1; for CC50: read-out: LC50 PANC-1; for IC (TGI): read-out: TGI PANC-1
# How it was run: as §1
# LNCaP = assay: SRB colorimetric cell growth inhibition assay, LNCaP; conditions: Homo sapiens, LNCaP, LN-caP; for GI50: GI=growth inhibition, read-out: GI50 LN-caP; for CC50: LC=cell killing (cytotoxic effect), read-out: LC50 LN-caP; for IC (TGI): TGI=total growth inhibition (cytostatic effect), read-out: TGI LN-caP
# How it was run: as §1
# K-562 = assay: SRB colorimetric cell growth inhibition assay, K-562; conditions: Homo sapiens, K562, K-562; for GI50: GI=growth inhibition, read-out: GI50 K-562; for CC50: read-out: LC50 K-562; for IC (TGI): read-out: TGI K-562
# How it was run: as §1
# SK-BR-3 = assay: SRB colorimetric cell growth inhibition assay, SK-BR-3; conditions: Homo sapiens, SK-BR-3, SK-BR-3; for GI50: GI=growth inhibition, read-out: GI50 SK-BR-3; for CC50: LC=cell killing (cytotoxic effect), read-out: LC50 SK-BR-3; for IC (TGI): TGI=total growth inhibition (cytostatic effect), read-out: TGI SK-BR-3
# How it was run: as §1
# LoVo-Dox = assay: SRB colorimetric cell growth inhibition assay, LoVo-Dox (MDR); conditions: Homo sapiens, LOVO-DOX; for GI50: GI=growth inhibition, read-out: GI50 LOVO-DOX; for CC50: read-out: LC50 LOVO-DOX; for IC (TGI): read-out: TGI LOVO-DOX
# How it was run: as §1
# IGROV-ET = assay: SRB colorimetric cell growth inhibition assay, IGROV-ET (ET-743 resistant); conditions: Homo sapiens, IGROV-ET; for GI50: GI=growth inhibition, read-out: GI50 IGROV-ET; for CC50: LC=cell killing (cytotoxic effect), read-out: LC50 IGROV-ET; for IC (TGI): TGI=total growth inhibition (cytostatic effect), read-out: TGI IGROV-ET
# How it was run: as §1
# DU-145 = assay: SRB colorimetric cell growth inhibition assay, DU-145; conditions: Homo sapiens, DU-145, DU-145; for GI50: GI=growth inhibition, read-out: GI50 DU-145; for CC50: LC=cell killing (cytotoxic effect), read-out: LC50 DU-145; for IC (TGI): TGI=total growth inhibition (cytostatic effect), read-out: TGI DU-145
# How it was run: as §1
# SKOV-3 = assay: SRB colorimetric cell growth inhibition assay, SKOV-3; conditions: Homo sapiens; for GI50: SK-OV-3, SKOV-3, GI=growth inhibition, read-out: GI50 SKOV-3; for CC50 / IC (TGI): SK-OV-3, SKOV-3; for CC50: LC=cell killing (cytotoxic effect), read-out: LC50 SKOV-3; for IC (TGI): TGI=total growth inhibition (cytostatic effect), read-out: TGI SKOV-3
# How it was run: (§2)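 SRB colorimetric readout of cell growth/viability in 96-well format. Means ± SD from triplicate wells; GI (growth inhibition), TGI (total growth inhibition, cytostatic) and LC (cell killing, cytotoxic) parameters derived.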
# IGROV = assay: SRB colorimetric cell growth inhibition assay, IGROV; conditions: Homo sapiens, IGROV; for GI50: GI=growth inhibition, read-out: GI50 IGROV; for CC50: LC=cell killing (cytotoxic effect), read-out: LC50 IGROV; for IC (TGI): TGI=total growth inhibition (cytostatic effect), read-out: TGI IGROV
# How it was run: as §1
# H-MEC-1 = assay: SRB colorimetric cell growth inhibition assay, H-MEC-1; conditions: Homo sapiens, HMEC-1, H-MEC-1; for GI50: GI=growth inhibition; for IC (TGI): TGI=total growth inhibition (cytostatic effect), read-out: TGI H-MEC-1
# How it was run: as §2
# [1] = as above; conditions: human, H-MEC-1 cells, H-MEC-1; LC=cell killing (cytotoxic effect); read-out: LC50 H-MEC-1
# How it was run: as §2
# HT-29 = assay: SRB colorimetric cell growth inhibition assay, HT-29; conditions: Homo sapiens, HT-29, HT-29; for GI50: GI=growth inhibition, read-out: GI50 HT-29; for CC50: read-out: LC50 HT-29; for IC (TGI): read-out: TGI HT-29
# How it was run: as §1
# [2] = LC=cell killing (cytotoxic effect)
# [3] = TGI=total growth inhibition (cytostatic effect)
# [4] = cell killing (cytotoxic effect)
# [5] = total growth inhibition (cytostatic effect)
smiles,measurement,setting,value
COc1cc2c(cc1OC)-c1c(-c3ccc(OS(C)(=O)=O)c(OC)c3)c3c4cc(OC)c(OS(C)(=O)=O)cc4oc(=O)c3n1CC2 [Compound 92],GI50,LoVo,7.52 µM
same,CC50,LoVo; [2],14.9 µM
same,IC (TGI),LoVo; [3],14.9 µM
same,GI50,A-549,14.9 µM
same,CC50,A-549; [2],14.9 µM
same,IC (TGI),A-549; [3],14.9 µM
same,GI50,SK-MEL-28,4.75 µM
same,CC50,SK-MEL-28,14.9 µM
same,IC (TGI),SK-MEL-28,10.1 µM
same,GI50,PANC-1,5.42 µM
same,CC50,PANC-1; [2],14.9 µM
same,IC (TGI),PANC-1; [3],14.9 µM
same,GI50,LNCaP,0.167 µM
same,CC50,LNCaP,5.09 µM
same,IC (TGI),LNCaP,0.71 µM
same,GI50,K-562,2.23 µM
same,CC50,K-562; [2],14.9 µM
same,IC (TGI),K-562; [3],13.8 µM
same,GI50,SK-BR-3,4.35 µM
same,CC50,SK-BR-3,14.9 µM
same,IC (TGI),SK-BR-3,11.6 µM
same,GI50,LoVo-Dox,2.14 µM
same,CC50,LoVo-Dox; [2],14.9 µM
same,IC (TGI),LoVo-Dox; [3],5.96 µM
same,GI50,IGROV-ET,6.85 µM
same,CC50,IGROV-ET,14.9 µM
same,IC (TGI),IGROV-ET,14.9 µM
same,GI50,DU-145,14.9 µM
same,CC50,DU-145,14.9 µM
same,IC (TGI),DU-145,14.9 µM
same,GI50,SKOV-3,7.61 µM
same,CC50,SKOV-3,14.9 µM
same,IC (TGI),SKOV-3,14.9 µM
same,GI50,IGROV,3.13 µM
same,CC50,IGROV,14.1 µM
same,IC (TGI),IGROV,6.64 µM
same,GI50,H-MEC-1,14.2 µM
same,IC (TGI),H-MEC-1,14.9 µM
same,CC50,[1],14.9 µM
same,GI50,HT-29,14.9 µM
same,CC50,HT-29; [2],14.9 µM
same,IC (TGI),HT-29; [3],14.9 µM
COc1cc2c(cc1OC)-c1c(-c3ccc(OC(=O)CCc4ccccc4)c(OC)c3)c3c4cc(OC)c(OC(=O)CCc5ccccc5)cc4oc(=O)c3n1CC2 [Compound 93],GI50,LoVo,12.8 µM
same,CC50,LoVo; [4],12.8 µM
same,IC (TGI),LoVo; [5],12.8 µM
same,GI50,A-549,8.64 µM
same,CC50,A-549; [4],12.8 µM
same,IC (TGI),A-549; [5],12.8 µM
same,GI50,SK-MEL-28,4.57 µM
same,CC50,SK-MEL-28,12.8 µM
same,IC (TGI),SK-MEL-28,12.8 µM
same,GI50,PANC-1,12.8 µM
same,CC50,PANC-1; [4],12.8 µM
same,IC (TGI),PANC-1; [5],12.8 µM
same,GI50,LNCaP,0.408 µM
same,CC50,LNCaP,7.08 µM
same,IC (TGI),LNCaP,1.27 µM
same,GI50,K-562,1.62 µM
same,CC50,K-562; [4],4.36 µM
same,IC (TGI),K-562; [5],2.65 µM
same,GI50,SK-BR-3,4.95 µM
same,CC50,SK-BR-3,12.8 µM
same,IC (TGI),SK-BR-3,12.8 µM
same,GI50,LoVo-Dox,3.39 µM
same,CC50,LoVo-Dox; [4],12.8 µM
same,IC (TGI),LoVo-Dox; [5],11.7 µM
same,GI50,IGROV-ET,11.7 µM
same,CC50,IGROV-ET,12.8 µM
same,IC (TGI),IGROV-ET,12.8 µM
same,GI50,DU-145,12.8 µM
same,CC50,DU-145,12.8 µM
same,IC (TGI),DU-145,12.8 µM
same,GI50,SKOV-3,6.26 µM
same,CC50,SKOV-3,12.8 µM
same,IC (TGI),SKOV-3,12.8 µM
same,GI50,IGROV,3.37 µM
same,CC50,IGROV,12.8 µM
same,IC (TGI),IGROV,7.08 µM
same,GI50,H-MEC-1,12.8 µM
same,IC (TGI),H-MEC-1,12.8 µM
same,CC50,[1],12.8 µM
same,GI50,HT-29,12.8 µM
same,CC50,HT-29; [4],12.8 µM
same,IC (TGI),HT-29; [5],12.8 µM

# From patent US7396837B2, “Antitumoral analogs of lamellarins” (Pharma Mar, S.A.U., priority 2002, dated 2008)
